According to patent publication US20240327397A1, “Pesticidally Active Fused Bicyclic Heteroaromatic Compounds” (SYNGENTA CROP PROTECTION AG, priority 2021, published 2024):

Experiments:
Assay type in all cases: in vivo
[1] = test system: Plutella xylostella (Diamond Back Moth); test: Example B3: Plutella xylostella, artificial diet in 24-well plates, eggs; conditions: 192 h, application rate 200 ppm, 8 days after infestation, versus untreated, read-out: effect in at least one of the two categories (mortality or growth inhibition)
Method: Example B3: Plutella xylostella (Diamond Back Moth)
24-well microtiter plates with artificial diet were treated with aqueous test solutions prepared from 10'000 ppm DMSO stock solutions by pipetting. After drying, Plutella eggs were pipetted through a plastic stencil onto a gel blotting paper and the plate was closed with it. The samples were assessed for mortality and growth inhibition in comparison to untreated samples 8 days after infestation.

[2] = test system: Myzus persicae (Green Peach Aphid); test: Example B7: Myzus persicae, intrinsic activity, sucrose solution under Parafilm; conditions: 120 h, test rate 12 ppm, 5 days after infestation
Text: Example B7: Myzus persicae (Green Peach Aphid). Intrinsic Activity
Test compounds prepared from 10'000 ppm DMSO stock solutions were applied by pipette into 24-well microtiter plates and mixed with sucrose solution. The plates were closed with a stretched Parafilm. A plastic stencil with 24 holes was placed onto the plate and infested pea seedlings were placed directly on the Parafilm. The infested plate was closed with a gel blotting paper and another plastic stencil and then turned upside down. The samples were assessed for mortality 5 days after infestation.

[3] = test system: Chilo suppressalis (Striped Rice Stemborer); test: Example B1: Chilo suppressalis, artificial diet in 24-well plates, L2 larvae; conditions: 144 h, application rate 200 ppm, 6 days after infestation, versus untreated, read-out: control (at least one of mortality, anti-feedant effect, growth inhibition)
Method: Example B1: Chilo suppressalis (Striped Rice Stemborer)
24-well microtiter plates with artificial diet were treated with aqueous test solutions prepared from 10'000 ppm DMSO stock solutions by pipetting. After drying, the plates were infested with L2 larvae (6-8 per well). The samples were assessed for mortality, anti-feeding effect, and growth inhibition in comparison to untreated samples 6 days after infestation. Control of Chilo suppressalis by a test sample is given when at least one of the categories mortality, anti-feedant effect, and growth inhibition is higher than the untreated sample.

[4] = test system: Spodoptera littoralis (Eqyptian Cotton Leaf Worm); test: Example B4: Spodoptera littoralis, sprayed cotton leaf discs, L1 larvae; conditions: foliar, 72 h, application rate 200 ppm, 3 days after infestation, versus untreated, read-out: control (at least one of mortality, anti-feedant effect, growth inhibition)
Method: Example B4: Spodoptera littoralis (Eqyptian Cotton Leaf Worm)
Cotton leaf discs were placed onto agar in 24-well microtiter plates and sprayed with aqueous test solutions prepared from 10'000 ppm DMSO stock solutions. After drying the leaf discs were infested with five L1 larvae. The samples were assessed for mortality, anti-feeding effect, and growth inhibition in comparison to untreated samples 3 days after infestation. Control of Spodoptera littoralis by a test sample is given when at least one of the categories mortality, anti-feedant effect, and growth inhibition is higher than the untreated sample.

[5] = test system: Diabrotica Balteata (Corn Root Worm); test: Example B2: Diabrotica balteata, sprayed maize sprouts on agar, L2 larvae; conditions: 96 h, application rate 200 ppm, 4 days after infestation, versus untreated, read-out: effect in at least one of the two categories (mortality or growth inhibition)
Method: Example B2: Diabrotica Balteata (Corn Root Worm)
Maize sprouts placed onto an agar layer in 24-well microtiter plates were treated with aqueous test solutions prepared from 10'000 ppm DMSO stock solutions by spraying. After drying, the plates were infested with L2 larvae (6 to 10 per well). The samples were assessed for mortality and growth inhibition in comparison to untreated samples 4 days after infestation.

[6] = test system: Frankliniella occidentalis (Western Flower Thrips); test: Example B5: Frankliniella occidentalis, feeding/contact activity, sunflower leaf discs; conditions: foliar, 168 h, application rate 200 ppm, population of mixed ages, 7 days after infestation
Method: Example B5: Frankliniella occidentalis (Western Flower Thrips). Feedinq/Contact Activity
Sunflower leaf discs were placed on agar in 24-well microtiter plates and sprayed with aqueous test solutions prepared from 10'000 DMSO stock solutions. After drying the leaf discs were infested with a Frankliniella population of mixed ages. The samples were assessed for mortality 7 days after infestation.

[7] = test system: Myzus persicae (Green Peach Aphid); test: Example B6: Myzus persicae, feeding/contact activity, sunflower leaf discs; conditions: foliar, 144 h, application rate 200 ppm, population of mixed ages, 6 days after infestation
Method: Example B6: Myzus persicae (Green Peach Aphid). Feedinq/Contact Activity
Sunflower leaf discs were placed onto agar in a 24-well microtiter plate and sprayed with aqueous test solutions prepared from 10'000 ppm DMSO stock solutions. After drying, the leaf discs were infested with an aphid population of mixed ages. The samples were assessed for mortality 6 days after infestation.

C[C@H](NC1=NS(C)(=O)=Nc2c(Br)cc(Br)cc21)c1ncnn1-c1ncccn1 (stereo partly drawn) [P1, 8,10-dibromo-3-methyl-3-oxo-N-[(1S)-1-(2-pyrimidin-2-yl-1,2,4-triazol-3-yl)ethyl]-3λ^6-thia-2,4-diazabicyclo[4.4.0]deca-1(6),2,4,7,9-pentaen-5-amine]
≥ 80%: percent effect (mortality or growth inhibition) at 200 ppm [1] | mortality at 12 ppm [2] | percent control (mortality, anti-feedant effect or growth inhibition) at 200 ppm [3] | percent control (mortality, anti-feedant effect or growth inhibition) at 200 ppm [4] | percent effect (mortality or growth inhibition) at 200 ppm [5] | mortality at 200 ppm [6]

C[C@H](NC1=NS(C)(=O)=Nc2c(Br)cc(Br)cc21)c1nccnc1-c1cnccn1 (stereo partly drawn) [P10, 8,10-dibromo-3-methyl-3-oxo-N-[(1S)-1-(3-pyrazin-2-ylpyrazin-2-yl)ethyl]-3λ^6-thia-2,4-diazabicyclo[4.4.0]deca-1(6),2,4,7,9-pentaen-5-amine]
≥ 80%: mortality at 200 ppm [7] | percent effect (mortality or growth inhibition) at 200 ppm [1] | mortality at 12 ppm [2] | percent control (mortality, anti-feedant effect or growth inhibition) at 200 ppm [3] | percent control (mortality, anti-feedant effect or growth inhibition) at 200 ppm [4] | percent effect (mortality or growth inhibition) at 200 ppm [5] | mortality at 200 ppm [6]

C[C@H](NC1=NS(C)(=O)=Nc2c(Cl)cc(C(F)(F)F)cc21)c1ncnn1-c1ncccn1 (stereo partly drawn) [P13, 10-chloro-3-methyl-3-oxo-N-[(1S)-1-(2-pyrimidin-2-yl-1,2,4-triazol-3-yl)ethyl]-8-(trifluoromethyl)-3λ^6-thia-2,4-diazabicyclo[4.4.0]deca-1(6),2,4,7,9-pentaen-5-amine]
≥ 80%: percent effect (mortality or growth inhibition) at 200 ppm [1] | mortality at 12 ppm [2] | percent control (mortality, anti-feedant effect or growth inhibition) at 200 ppm [4] | percent effect (mortality or growth inhibition) at 200 ppm [5] | mortality at 200 ppm [6]
